Organism: Rattus norvegicus
Assay: DrugMatrix - Regimen: Daily Repeat
Assay type: toxicity, organism-based, Sprague-Dawley
Set-up: regimen Daily Repeat, gender Male, age 6-8 weeks
Details: in vivo, po, route oral GAVAGE; for ABSOLUTE EOSINOPHIL / ABSOLUTE LYMPHOCYTE / ABSOLUTE MONOCYTE / ABSOLUTE SEGMENTED NEUTROPHIL / EOSINOPHIL / ERYTHROCYTE COUNT / HEMATOCRIT / HEMOGLOBIN / LEUKOCYTE COUNT / LYMPHOCYTE / MEAN CORPUSCULAR HEMOGLOBIN / MEAN CORPUSCULAR HEMOGLOBIN CONCENTRATION / MEAN CORPUSCULAR VOLUME / MONOCYTE / NEUTROPHIL / NUCLEATED RED BLOOD CELLS / PLATELET COUNT / ABSOLUTE BASOPHIL / BASOPHIL: tissue Blood; for ALANINE AMINOTRANSFERASE / ALBUMIN / ALKALINE PHOSPHATASE / ASPARTATE AMINOTRANSFERASE / BLOOD UREA NITROGEN / CARBON DIOXIDE / CHLORIDE / CHOLESTEROL / CREATINE PHOSPHOKINASE / CREATININE / GLUCOSE / LACTATE DEHYDROGENASE / LIPASE / PHOSPHORUS / POTASSIUM / SODIUM / TOTAL PROTEIN / URIC ACID / TOTAL BILIRUBIN: tissue Plasma
[1] = 0 mg/kg, 72 h, dose level Control, time 3 day, vehicle 100 % SALINE
[2] = 0 mg/kg, 72 h, dose level Control, time 3 day, vehicle 100 % WATER
[3] = 0 mg/kg, 120 h, dose level Control, time 5 day, vehicle 100 % SALINE
[4] = 0 mg/kg, 120 h, dose level Control, time 5 day, vehicle 100 % WATER
[5] = 300 mg/kg, 72 h, dose level M2, time 3 day, vehicle 100 % SALINE
[6] = 300 mg/kg, 120 h, dose level M2, time 5 day, vehicle 100 % SALINE

CCCc1nn(C)c2c(=O)[nH]c(-c3cc(S(=O)(=O)N4CCN(C)CC4)ccc3OCC)nc12
ABSOLUTE EOSINOPHIL [1]: 37 CELLS/uL
ABSOLUTE LYMPHOCYTE [1]: 12359.33 CELLS/uL
ABSOLUTE MONOCYTE [1]: 122.67 CELLS/uL
ABSOLUTE SEGMENTED NEUTROPHIL [1]: 847.67 CELLS/uL
EOSINOPHIL [1]: 0.33%
ERYTHROCYTE COUNT [1]: 5.75 x10E6/uL
HEMATOCRIT [1]: 36.08%
HEMOGLOBIN [1]: 14.07 G/DL
LEUKOCYTE COUNT [1]: 13.37 x10E3/uL
LYMPHOCYTE [1]: 92.5%
MEAN CORPUSCULAR HEMOGLOBIN [1]: 24.47 pg
MEAN CORPUSCULAR HEMOGLOBIN CONCENTRATION [1]: 38.98 G/DL
MEAN CORPUSCULAR VOLUME [1]: 62.78 fL
MONOCYTE [1]: 1%
NEUTROPHIL [1]: 6.17%
NUCLEATED RED BLOOD CELLS [1]: 0.17 /100WBC
PLATELET COUNT [1]: 1202.17 x10E3/uL
ABSOLUTE BASOPHIL [2]: 0 CELLS/uL
ABSOLUTE EOSINOPHIL [2]: 0 CELLS/uL
ABSOLUTE LYMPHOCYTE [2]: 7802.17 CELLS/uL
ABSOLUTE MONOCYTE [2]: 13.5 CELLS/uL
ABSOLUTE SEGMENTED NEUTROPHIL [2]: 617.67 CELLS/uL
BASOPHIL [2]: 0%
EOSINOPHIL [2]: 0%
ERYTHROCYTE COUNT [2]: 5.35 x10E6/uL
HEMATOCRIT [2]: 33.02%
HEMOGLOBIN [2]: 12.88 G/DL
LEUKOCYTE COUNT [2]: 8.43 x10E3/uL
LYMPHOCYTE [2]: 92.67%
MEAN CORPUSCULAR HEMOGLOBIN [2]: 24.12 pg
MEAN CORPUSCULAR HEMOGLOBIN CONCENTRATION [2]: 39.03 G/DL
MEAN CORPUSCULAR VOLUME [2]: 61.8 fL
MONOCYTE [2]: 0.17%
NEUTROPHIL [2]: 7.17%
NUCLEATED RED BLOOD CELLS [2]: 0 /100WBC
PLATELET COUNT [2]: 1124.83 x10E3/uL
ALANINE AMINOTRANSFERASE [1]: 50.67 u/L
ALBUMIN [1]: 4.13 G/DL
ALKALINE PHOSPHATASE [1]: 356.33 u/L
ASPARTATE AMINOTRANSFERASE [1]: 78.17 u/L
BLOOD UREA NITROGEN [1]: 14.17 mg/dL
CARBON DIOXIDE [1]: 31.33 mmol/L
CHLORIDE [1]: 98.5 MEQ/L
CHOLESTEROL [1]: 76.5 mg/dL
CREATINE PHOSPHOKINASE [1]: 248.33 u/L
CREATININE [1]: 0.2 mg/dL
GLUCOSE [1]: 144 mg/dL
LACTATE DEHYDROGENASE [1]: 107 u/L
LIPASE [1]: 9.83 u/L
PHOSPHORUS [1]: 12.8 mg/dL
POTASSIUM [1]: 6.75 MEQ/L
SODIUM [1]: 142 MEQ/L
TOTAL PROTEIN [1]: 5.98 G/DL
URIC ACID [1]: 1.42 mg/dL
ALANINE AMINOTRANSFERASE [2]: 54.17 u/L
ALBUMIN [2]: 4.07 G/DL
ALKALINE PHOSPHATASE [2]: 383.83 u/L
ASPARTATE AMINOTRANSFERASE [2]: 82.17 u/L
BLOOD UREA NITROGEN [2]: 13.67 mg/dL
CARBON DIOXIDE [2]: 31 mmol/L
CHLORIDE [2]: 100.83 MEQ/L
CHOLESTEROL [2]: 65.17 mg/dL
CREATINE PHOSPHOKINASE [2]: 228.33 u/L
CREATININE [2]: 0.12 mg/dL
GLUCOSE [2]: 148 mg/dL
LACTATE DEHYDROGENASE [2]: 97.83 u/L
LIPASE [2]: 9.17 u/L
PHOSPHORUS [2]: 9.75 mg/dL
POTASSIUM [2]: 5.85 MEQ/L
SODIUM [2]: 147.02 MEQ/L
TOTAL BILIRUBIN [2]: 0.18 mg/dL
TOTAL PROTEIN [2]: 6.1 G/DL
URIC ACID [2]: 0.5 mg/dL
ABSOLUTE LYMPHOCYTE [3]: 8681.17 CELLS/uL
ABSOLUTE MONOCYTE [3]: 79.83 CELLS/uL
ABSOLUTE SEGMENTED NEUTROPHIL [3]: 689 CELLS/uL
HEMATOCRIT [3]: 33.55%
HEMOGLOBIN [3]: 13.1 G/DL
LEUKOCYTE COUNT [3]: 9.45 x10E3/uL
LYMPHOCYTE [3]: 92.33%
MEAN CORPUSCULAR HEMOGLOBIN [3]: 23.92 pg
MEAN CORPUSCULAR HEMOGLOBIN CONCENTRATION [3]: 39.07 G/DL
MEAN CORPUSCULAR VOLUME [3]: 61.22 fL
MONOCYTE [3]: 0.67%
NEUTROPHIL [3]: 7%
PLATELET COUNT [3]: 1001.17 x10E3/uL
ABSOLUTE BASOPHIL [4]: 0 CELLS/uL
ABSOLUTE EOSINOPHIL [4]: 0 CELLS/uL
ABSOLUTE LYMPHOCYTE [4]: 10538 CELLS/uL
ABSOLUTE MONOCYTE [4]: 15.83 CELLS/uL
ABSOLUTE SEGMENTED NEUTROPHIL [4]: 762.83 CELLS/uL
BASOPHIL [4]: 0%
EOSINOPHIL [4]: 0%
ERYTHROCYTE COUNT [4]: 5.49 x10E6/uL
HEMATOCRIT [4]: 34.63%
HEMOGLOBIN [4]: 13.72 G/DL
LEUKOCYTE COUNT [4]: 11.32 x10E3/uL
LYMPHOCYTE [4]: 92.67%
MEAN CORPUSCULAR HEMOGLOBIN [4]: 24.97 pg
MEAN CORPUSCULAR HEMOGLOBIN CONCENTRATION [4]: 39.57 G/DL
MEAN CORPUSCULAR VOLUME [4]: 63.05 fL
MONOCYTE [4]: 0.17%
NEUTROPHIL [4]: 7.17%
NUCLEATED RED BLOOD CELLS [4]: 0.17 /100WBC
PLATELET COUNT [4]: 802 x10E3/uL
ALANINE AMINOTRANSFERASE [3]: 49.33 u/L
ALKALINE PHOSPHATASE [3]: 300.33 u/L
ASPARTATE AMINOTRANSFERASE [3]: 83.5 u/L
BLOOD UREA NITROGEN [3]: 16 mg/dL
CARBON DIOXIDE [3]: 29.67 mmol/L
CHLORIDE [3]: 100.5 MEQ/L
CHOLESTEROL [3]: 74.33 mg/dL
CREATINE PHOSPHOKINASE [3]: 489.67 u/L
CREATININE [3]: 0.35 mg/dL
GLUCOSE [3]: 151 mg/dL
LACTATE DEHYDROGENASE [3]: 133.67 u/L
LIPASE [3]: 11.17 u/L
PHOSPHORUS [3]: 10.88 mg/dL
POTASSIUM [3]: 5.5 MEQ/L
SODIUM [3]: 145.7 MEQ/L
TOTAL BILIRUBIN [3]: 0.2 mg/dL
URIC ACID [3]: 0.68 mg/dL
ALANINE AMINOTRANSFERASE [4]: 50.5 u/L
ALBUMIN [4]: 4.07 G/DL
ALKALINE PHOSPHATASE [4]: 336.83 u/L
ASPARTATE AMINOTRANSFERASE [4]: 81 u/L
BLOOD UREA NITROGEN [4]: 14.17 mg/dL
CARBON DIOXIDE [4]: 32 mmol/L
CHLORIDE [4]: 98.33 MEQ/L
CHOLESTEROL [4]: 69.17 mg/dL
CREATINE PHOSPHOKINASE [4]: 253.33 u/L
CREATININE [4]: 0.13 mg/dL
GLUCOSE [4]: 153.67 mg/dL
LACTATE DEHYDROGENASE [4]: 157 u/L
LIPASE [4]: 9 u/L
PHOSPHORUS [4]: 10.78 mg/dL
POTASSIUM [4]: 6.11 MEQ/L
SODIUM [4]: 144.57 MEQ/L
TOTAL BILIRUBIN [4]: 0.15 mg/dL
TOTAL PROTEIN [4]: 6.05 G/DL
URIC ACID [4]: 0.73 mg/dL
ABSOLUTE BASOPHIL [5]: 0 CELLS/uL
ABSOLUTE EOSINOPHIL [5]: 110.67 CELLS/uL
ABSOLUTE LYMPHOCYTE [5]: 12663.33 CELLS/uL
ABSOLUTE MONOCYTE [5]: 138 CELLS/uL
ABSOLUTE SEGMENTED NEUTROPHIL [5]: 821.33 CELLS/uL
BASOPHIL [5]: 0%
EOSINOPHIL [5]: 0.67%
ERYTHROCYTE COUNT [5]: 5.21 x10E6/uL
HEMATOCRIT [5]: 34.03%
HEMOGLOBIN [5]: 13.07 G/DL
LEUKOCYTE COUNT [5]: 13.73 x10E3/uL
LYMPHOCYTE [5]: 92.67%
MEAN CORPUSCULAR HEMOGLOBIN [5]: 25.03 pg
MEAN CORPUSCULAR HEMOGLOBIN CONCENTRATION [5]: 38.43 G/DL
MEAN CORPUSCULAR VOLUME [5]: 65.3 fL
MONOCYTE [5]: 0.67%
NEUTROPHIL [5]: 6%
NUCLEATED RED BLOOD CELLS [5]: 0.33 /100WBC
PLATELET COUNT [5]: 1148.67 x10E3/uL
ALANINE AMINOTRANSFERASE [5]: 45.67 u/L
ALBUMIN [5]: 3.8 G/DL
ALKALINE PHOSPHATASE [5]: 335 u/L
ASPARTATE AMINOTRANSFERASE [5]: 71.67 u/L
BLOOD UREA NITROGEN [5]: 13.33 mg/dL
CARBON DIOXIDE [5]: 27.67 mmol/L
CHLORIDE [5]: 100 MEQ/L
CHOLESTEROL [5]: 70.67 mg/dL
CREATINE PHOSPHOKINASE [5]: 284 u/L
CREATININE [5]: 0.2 mg/dL
GLUCOSE [5]: 154 mg/dL
LACTATE DEHYDROGENASE [5]: 142.33 u/L
LIPASE [5]: 12.33 u/L
PHOSPHORUS [5]: 11.37 mg/dL
POTASSIUM [5]: 5.84 MEQ/L
SODIUM [5]: 144.75 MEQ/L
TOTAL BILIRUBIN [5]: 0.13 mg/dL
TOTAL PROTEIN [5]: 5.13 G/DL
URIC ACID [5]: 0.97 mg/dL
ABSOLUTE BASOPHIL [6]: 0 CELLS/uL
ABSOLUTE EOSINOPHIL [6]: 0 CELLS/uL
ABSOLUTE LYMPHOCYTE [6]: 10278 CELLS/uL
ABSOLUTE MONOCYTE [6]: 0 CELLS/uL
ABSOLUTE SEGMENTED NEUTROPHIL [6]: 955.33 CELLS/uL

Source: ChEMBL document CHEMBL3885881, “DrugMatrix”
